Columns and labels:
[1] = system: human leukemia HL-60 cell line; parameters: method as in PMID 21067217; conditions: 72 h treatment; cited from earlier work
MCF-10A cells = assay: Cell cycle analysis with PI (flow cytometry); format: cell-based, human; conditions: 0.1 and 1 µM, 24, 48, 72 h
Method: (§1) Cells were seeded onto 6-well plates and treated with A-1 (0.1 µM and 1 µM) for 24, 48, and 72 h. Cells incubated with 0.01% DMSO (ATCC; Manassas, VA, USA) were used as a control. Then, MDA-MB-231 and MCF-10A cells were collected by trypsinization; MDA-MB-436 cells were collected by scraping. Treated cells were fixed with ice-cold 70% ethanol while vortexing and incubated for 1 h in 4 °C. Then, cells were washed with cold 1X DPBS, treated with 1 mg/mL of ribonuclease A, and incubated for 30 min at 37 °C. The cells were then stained with 10 µg/mL of propidium iodide (PI), incubated for 30 min at 37 °C, and analyzed by flow cytometry using BD FACS Aria Sorter (BD Biosciences, Franklin Lakes, NJ, USA). Data were analyzed with Modfit LT 5.0 software (Verity Software House; Topsham, ME, USA). All experiments were performed in triplicates.

MDA-MB-436 cells = assay: Cell cycle analysis with PI (flow cytometry); format: cell-based, human
Method: as §1

MDA-MB-231 cells [2] = assay: Cell cycle analysis with PI (flow cytometry); format: cell-based, human
Method: as §1

[3] = system: caspase-8, 9, PARP, and survivin proteins in MDA-MB-231 cells; assay: Western blot of caspase-8, caspase-9, PARP and survivin; format: cell-based, human; conditions: 0.1 and 1 µM, 24 h
Method: MDA-MB-231 and MDA-MB-436 cells (10^7 and 5 × 10^6 cells/3 mL medium, respectively) were seeded in a 6-well cell culture plate. After 24 h, the cells were treated with A-1 (0.1 µM and 1 µM) for 24 h. Cells treated with 0.01% DMSO (ATCC; Manassas, VA, USA) were included as a control. Protein extracts were prepared using RIPA Lysis and Extraction Buffer plus Halt™ Protease Inhibitor Cocktail (Thermo Fisher Scientific; Waltham, MA, USA). The protein concentration was measured using the Bradford assay (Thermo Fisher Scientific; Waltham, MA, USA). Protein extracts (60 µg) with 5 µL of 2X Novex™ Tris-Glycine SDS Sample Buffer (Thermo Fisher Scientific; Waltham, MA, USA) and 1% dithiothreitol (DTT; Thermo Fisher Scientific; Waltham, MA, USA) were denatured and separated by electrophoresis using SDS-PAGE in 10% Tris-Glycine pre-cast gel (Novex™ WedgeWell™, Thermo Fisher Scientific; Waltham, MA, USA). The gel was run in 1X Novex™ Tris-Glycine SDS running buffer (Thermo Fisher Scientific; Waltham, MA, USA) at a constant 125 voltage for 90 min. The proteins were transferred into Trans-Blot Turbo Mini 0.2 µm PVDF membranes (Bio-Rad Laboratories; Hercules, CA, USA) using the Trans Blot Turbo System (Bio-Rad Laboratories; Hercules, CA, USA) at 1.3 amp and up to 25 volts for 7 min. After the membranes dried completely, they were incubated in 1X Tris Buffered Saline (TBS; Bio-Rad; Hercules, CA, USA) for 5 min at room temperature. Then, the membranes were blocked with 5% non-fat dry milk in 1X TBS containing 1% Tween 20 (TBST; Bio-Rad; Hercules, CA, USA) for 1 h at room temperature. The membranes were incubated with specific primary antibodies at 4 °C overnight. The primary antibodies and dilutions included rabbit anti-caspase-8 (D35G2) mAb (1:500; Cell Signaling Technology; Danvers, MA, USA), rabbit anti-PARP mAb (1:500; Cell Signaling Technology; Danvers, MA, USA), rabbit anti-human survivin polyclonal antibody (0.5 µg/mL; R&D Systems; Minneapolis, MN, USA), mouse anti-human caspase-9 mAb (1 µg/mL; R&D Systems; Minneapolis, MN, USA), mouse anti-vinculin antibody (2 µg/mL; R&D Systems; Minneapolis, MN, USA), and mouse anti-human GAPDH antibody (0.05 µg/mL; R&D Systems; Minneapolis, MN, USA). Afterwards, the membranes were incubated with HRP-conjugated goat anti-rabbit IgG secondary antibody (1:2000; Cell Signaling Technology; Danvers, MA, USA) and HRP-conjugated AffiniPure goat anti-mouse IgG secondary antibody (1:50,000; Jackson Immunoresearch Laboratories; West Grove, PA, USA) for 1 h at room temperature. The membranes were washed with 1X TBST and then incubated with SuperSignal™ West Pico PLUS Chemiluminescent Substrate (Thermo Fisher Scientific; Waltham, MA, USA). The membranes were scanned and analyzed using the Li-COR Odyssey® Fc Imaging System (LI-COR Biosciences; Lincoln, NE, USA).

[4] = system: peripheral blood mononuclear cells (PBMCs); parameters: method as in PMID 21067217; conditions: cited from earlier work
[5] = system: UDP-glucuronosyltransferases; conditions: in vitro metabolism; cited from earlier work
MDA-MB-231 cells [6] = assay: RealTime-Glo MT cell viability (cytotoxicity) assay; format: cell-based, human; conditions: for IC50: Homo sapiens
Method: The cytotoxicity of RES, A-1, and A-3 was measured using the RealTime-Glo^TM MT Cell Viability Assay (Promega, Madison, WI, USA). The cells (10,000 cells/well) were seeded into 96-well plates. […] Cells with 0.1% DMSO (ATCC; Manassas, VA, USA) were included as a control. Luminescence was measured every 12 h for 72 total hours in a Cytation^TM 5 (BioTek, Winooski, VT, USA) plate reader. All experiments were performed in triplicates.

## CC(C)/C=C/c1c(O)cc(/C=C/c2ccc(O)c(O)c2)cc1O [A-1, arachidin-1]
[1]
  IC50: 4200 nM
MCF-10A cells
  change in cell cycle phase distribution: no significant changes in the percentage of cells at different phases
MDA-MB-436 cells; 0.1 µM, 48 h
  percentage of cells in G2-M phase: 25.82 ± 2.73%
MDA-MB-436 cells; 0.1 µM, 72 h
  percentage of cells in G2-M phase: 38.89 ± 0.08%
MDA-MB-436 cells; 1 µM, 24 h
  percentage of cells in G2-M phase: 23.97 ± 0.57%
MDA-MB-436 cells; 1 µM, 48 h
  percentage of cells in G2-M phase: 31.07 ± 0.29%
MDA-MB-436 cells; 1 µM, 72 h
  percentage of cells in G2-M phase: 36.88 ± 1.42%
MDA-MB-436 cells; 0.1 and 1 µM
  cell cycle effect: increased the percentage of cells in the G2-M phase
MDA-MB-231 cells [2]; 0.1 µM, 72 h
  percentage of cells in G2-M phase: 27.73 ± 4.33%
MDA-MB-231 cells [2]; 1 µM, 24 h
  percentage of cells in G2-M phase: ~31.73 ± 4.00%
MDA-MB-231 cells [2]; 1 µM, 48 h
  percentage of cells in G2-M phase: ~25.13 ± 0.89%
MDA-MB-231 cells [2]; 1 µM, 72 h
  percentage of cells in G2-M phase: 31.28 ± 3.45%
MDA-MB-231 cells [2]; 0.1 and 1 µM
  cell cycle effect: cell arrest in the G2-M phase
[3]
  cleaved PARP level: only slightly increased and not statistically significant
  cleaved caspase-9 level: only significantly increased in A-1 1 µM
  full-length PARP protein level: significantly decreased levels
  full-length caspase-8 level: no significant change
  survivin expression: downregulated
[4]
  cytotoxic effects on PBMCs: no cytotoxic effects
[5]
  glucuronidated products compared to non-prenylated analogs piceatannol and RES: lower glucuronidated products
MDA-MB-231 cells [6]; MDA-MB-231, 24 h, MDA-MB-231, 24 h, in Figure 2 panels
  IC50: 1840 nM
MDA-MB-231 cells [6]; MDA-MB-231, 24 h, MDA-MB-231, 24 h of treatment
  IC50: 2680 nM
MDA-MB-231 cells [6]; MDA-MB-231, 48 h, MDA-MB-231, 48 h, in Figure 2 panels
  IC50: 1420 nM
MDA-MB-231 cells [6]; MDA-MB-231, 48 h, MDA-MB-231, 48 h of treatment
  IC50: 7820 nM
MDA-MB-231 cells [6]; MDA-MB-231, 72 h, MDA-MB-231, 72 h, in Figure 2 panels
  IC50: 2510 nM
MDA-MB-231 cells [6]; MDA-MB-231, 72 h, MDA-MB-231, 72 h of treatment
  IC50: 2510 nM
MDA-MB-231 cells [6]; MDA-MB-231, MDA-MB-231, all treatment time points
  IC50: ~2000 nM
MDA-MB-231 cells [6]; MDA-MB-231, 1 µM, 24, 48, 72 h
  antiproliferative effect (cell viability vs control): cell proliferation reductions
MDA-MB-231 cells [6]; MDA-MB-231, 0.01-10 µM, 72 h
  growth inhibition at low concentrations: higher inhibitory growth effects at lower micromolar concentrations when compared to RES
MDA-MB-231 cells [6]; MDA-MB-231, 24 h
  fold lower IC50 of A-1 than RES: six-fold

From article PMC8835363, “Arachidin-1, a Prenylated Stilbenoid from Peanut, Induces Apoptosis in Triple-Negative Breast Cancer Cells” (International Journal of Molecular Sciences, 2022)
